Measured values taken from US20110044938A1 (NYCOMED GMBH, priority 2006, published 2011).

How the values were obtained:
[1] = tested on: RKO (RKOp27) human colon adenocarcinoma cells; test: Alamar Blue cell viability assay, anti-proliferative/cytotoxic activity on proliferating RKO subclones; type: cell-based; conditions: RKOp27, 72 h, RKO p27 uninduced (proliferating) cells, value = class bound given in Table A, read-out: −logIC50 RKO p27 uninduced (proliferating) (converted)
Outline: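 Alamar Blue fluorescence (ex 544, em 590 nm) after 72 h compound exposure at 37 °C, 5% CO2, normalised to untreated controls set at 100%. Cells were seeded at 5000 per well and dosed 24 h later with serial semi-logarithmic dilutions in 10% FCS DMEM, four replicates each. −log IC50 [mol/l] was derived from concentration-effect curves.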

[2] = tested on: subclones of RKO colon adenocarcinoma cells (RKOp27 or RKOp21) arrested by Ponasterone A; test: Alamar Blue cell viability assay, cell cycle specific mode of action: cells arrested by ectopic p27Kip1 induced by Ponasterone A versus proliferating cells; type: cell-based; conditions: Homo sapiens, RKO p27 induced (arrested) cells, 10 μM Ponasterone A, 72 hours, value = class bound given in Table A, read-out: −logIC50 RKO p27 induced (arrested) (converted)
Outline: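 Viability of proliferating versus Ponasterone A (10 μM)-arrested RKOp27/RKOp21 cells after 72 h compound exposure at 37° C, in quadruplicate. Read-out is Alamar Blue fluorescence (544/590 nm) normalised to untreated cells = 100%; values as −log IC50.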

Structure (SMILES) | IC50 [2] | IC50 [1]
Cc1ccncc1/C=C/C(=O)Nc1sc2c(c1C#N)CCC(COC(=O)N1CC(O)C1)C2 (stereo not shown) [Example 132, 3-Hydroxy-azetidine-1-carboxylic acid 3-cyano-2-[(E)-3-(4-methyl-pyridin-3-yl)-allanoylamino]-4,5,6,7-tetrahydro-benzo[b]thiophen-6-ylmethyl ester] | ≥ 100 µM | 0.501 to 2 µM
N#Cc1c(NC(=O)/C=C/c2cccnc2)sc2c1CCC(COC(=O)N1CCOCC1)C2 (stereo not shown) [Example 84, Morpholine-4-carboxylic acid-3-cyano-2-((E)-3-pyridin-3-yl-allanoylamino)-4,5,6,7-tetrahydro-benzo[b]thiophen-6-ylmethyl ester] | ≥ 100 µM | ≤ 0.501 µM
CCOc1ccccc1CCC(=O)Nc1sc2c(c1C#N)CCC(OC(=O)OCc1ccccc1)C2 (stereo not shown) [Example 154, Carbonic acid benzyl ester 3-cyano-2-[3-(2-ethoxy-phenyl)-propanoylamino]-4,5,6,7-tetrahydro-benzo[b]thiophen-6-yl ester] | ≥ 100 µM | 0.501 to 2 µM
COc1cccc(C(C)CC(=O)Nc2sc3c(c2C#N)CCC(OC(=O)NCCn2ccnc2)C3)c1 (stereo not shown) [Example 280, (2-Imidazol-1-yl-ethyl)-carbamic acid 3-cyano-2-[3-(3-methoxy-phenyl)-butanoylamino]-4,5,6,7-tetrahydro-benzo[b] thiophen-6-yl ester] | ≥ 50.1 µM | 0.501 to 2 µM
CCOc1ccccc1CCC(=O)Nc1sc2c(c1C#N)CCC(COC(=O)NCc1cnoc1C)C2 (stereo not shown) [Example 212, (5-Methyl-isoxazol-4-ylmethyl)-carbamic acid 3-cyano-2-[3-(2-ethoxy-phenyl)-propanoylamino]-4,5,6,7-tetrahydro-benzo[b]thiophen-6-ylmethyl ester] | ≥ 100 µM | ≤ 0.501 µM
CCOc1ccccc1CCC(=O)Nc1sc2c(c1C#N)CCC(COC(=O)NCc1csc(C)n1)C2 (stereo not shown) [Example 213, (2-Methyl-thiazol-4-ylmethyl)-carbamic acid 3-cyano-2-[3-(2-ethoxy-phenyl)-propanoylamino]-4,5,6,7-tetrahydro-benzo[b]thiophen-6-ylmethyl ester] | ≥ 100 µM | ≤ 0.501 µM
COc1cccc(CCC(=O)Nc2sc3c(c2C#N)CCC(COC(=O)NCc2cnn(C)c2)C3)c1 (stereo not shown) [Example 239, (1-Methyl-1H-pyrazol-4-ylmethyl)-carbamic acid 3-cyano-2-[3-(3-methoxy-phenyl)-propanoylamino]-4,5,6,7-tetrahydro-benzo[b]thiophen-6-ylmethyl ester] | ≥ 100 µM | ≤ 0.501 µM

The next lines start with results.

IC50 [2] | Structure (SMILES) | IC50 [1]
≥ 50.1 µM | CC(CC(=O)Nc1sc2c(c1C#N)CCC(OC(=O)N1CCOCC1)C2)c1ccccc1 (stereo not shown) [Example 366, Morpholine-4-carboxylic acid 3-cyano-2-(3-phenyl-butanoyl-amino)-4,5,6,7-tetrahydro-benzo[b] thiophen-6-yl ester] | ≤ 0.501 µM
≥ 100 µM | N#Cc1c(NC(=O)/C=C/c2cccnc2)sc2c1CCC(OC(=O)NCc1cccnc1)C2 (stereo not shown) [Example 35, Pyridin-3-ylmethyl-carbamic acid 3-cyano-2-((E)-3-pyridin-3-yl-allanoylamino)-4,5,6,7-tetrahydro-benzo[b]thiophen-6-yl ester] | 0.501 to 2 µM
≥ 100 µM | COc1cccc(CCC(=O)Nc2sc3c(c2C#N)CCC(OC(=O)NCc2ccno2)C3)c1 (stereo not shown) [Example 229, Isoxazol-5-ylmethyl-carbamic acid 3-cyano-2-[3-(3-methoxy-phenyl)-propanoylamino]-4,5,6,7-tetrahydro-benzo[b]thiophen-6-yl ester] | 0.501 to 2 µM
≥ 100 µM | N#Cc1c(NC(=O)/C=C/c2cccnc2)sc2c1CC[C@@H](COC(=O)N1CCC[C@H](O)C1)C2 [Example 87d, (S)-3-Hydroxy-piperidine-1-carboxylic acid (R)-3-cyano-2-((E)-3-pyridin-3-yl-allanoylamino)-4,5,6,7-tetrahydro-benzo[b]thiophen-6-ylmethyl ester] | ≤ 0.501 µM
